Earlier results, collected in patent US10314326B2, “Composition for reducing food intake” (Natures Remedies Ltd, priority 2009, dated 2019).
Like-named read-outs stand apart in the source and are kept apart here. No end group written: not given here.

What was measured:
[1] = literature; for reduction in food/calorie intake: pharmacological options
[2] = peripheral injection, rats
[3] = peripheral injection, human subjects
[4] = 14 healthy volunteers
[5] = approximately 20 g per day for 7 days, human volunteers

## O=C(O)CC(O)(C(=O)O)C(O)C(=O)O (stereo not drawn) [HCA-SX, hydroxycitric acid]
[1]; human studies
  decrease in food intake: 4%

## CCN(CC)C(C)C(=O)c1ccccc1 (stereo not drawn) [diethylpropion]
[1]
  reduction in food/calorie intake: 11-15%

## CNCCC(Oc1ccc(C(F)(F)F)cc1)c1ccccc1 (stereo not drawn) [fluoxetin]
[1]
  reduction in food/calorie intake: 13-16%

## CC(C)CC(N(C)C)C1(c2ccc(Cl)cc2)CCC1 (stereo not drawn) [sibutramine]
[1]
  reduction in food/calorie intake: 12-26%

## beta-glucan
[1]
  food intake and appetite ratings: not significantly reduced

## fructooligosaccharides
[1]
  food intake and appetite ratings: not significantly reduced

## glucagon-like peptide-1 (7-36) amide (HAEGTFTSDVSSYLEGQAAKEFIAWLVKGR-NH2; UniProt P01275 98-127, looked up) [GLP-1, anorectic gut peptide secreted by the L-cells]
[2]
  body weight: decreases
  food intake: decreases
[3]
  body weight: decreases
  food intake: decreases
[4]
  motility in the antro-duodeno-jejunal region: decreases

## methylcellulose
[1]
  food intake and appetite ratings: not significantly reduced

## oligofructose
[1]; human studies
  reduction in total intake: 5%
[5]
  serum GLP-1 levels: increased

## sodium alginate
[1]; human studies
  reduction in energy intake: 7%
